Results from PubChem BioAssay (NCI).
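Briefly, cells in 96-well plates were exposed to five compound concentrations for 48 h, and endpoints were estimated by linear interpolation. GI50: concentration for 50% inhibition of growth. TGI is the concentration that stops growth completely.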

Tests used:
Experiment in all cases: NCI tumour cell line growth inhibition, 48 h; in the data active means GI50 below about 0.43 µM; inactive means the rest
RXF 393 renal = tested on: RXF 393 renal
786-0 renal = tested on: 786-0 renal
HL-60(TB) leukemia = tested on: HL-60(TB) leukemia
NCI-H522 lung = tested on: NCI-H522 lung
SNB-75 CNS = tested on: SNB-75 CNS
K-562 leukemia = tested on: K-562 leukemia
UO-31 renal = tested on: UO-31 renal
SN12C renal = tested on: SN12C renal
MOLT-4 leukemia = tested on: MOLT-4 leukemia
PC-3 prostate = tested on: PC-3 prostate

CC1=NC2(C(=O)O)C3(C(=O)O)N=C(C)OC3(C(F)(F)F)C2(C(F)(F)F)O1 (configuration not stated)
> 100 µM: TGI (RXF 393 renal) | TGI (786-0 renal) | TGI (HL-60(TB) leukemia) | TGI (NCI-H522 lung) | TGI (SNB-75 CNS) | TGI (K-562 leukemia) | TGI (UO-31 renal) | TGI (SN12C renal) | TGI (MOLT-4 leukemia)

CN(c1ccccc1)c1nc(=[N+](C)C)ss1
> 100 µM: TGI (RXF 393 renal) | TGI (786-0 renal) | TGI (HL-60(TB) leukemia) | TGI (NCI-H522 lung) | TGI (SNB-75 CNS) | TGI (K-562 leukemia) | TGI (UO-31 renal) | TGI (SN12C renal)

O=C(O)c1c2c(c(O)c3c1CN(C1CCCCC1)CO3)OCN(C1CCCCC1)C2
40.1 µM: TGI (MOLT-4 leukemia)
> 100 µM: TGI (RXF 393 renal) | TGI (786-0 renal) | TGI (PC-3 prostate) | TGI (SNB-75 CNS) | TGI (K-562 leukemia) | TGI (UO-31 renal)
95.9 µM: TGI (NCI-H522 lung)
72.9 µM: TGI (SN12C renal)

COc1ccc(CC(C)NCC(O)c2ccc(O)c(NC=O)c2)cc1 (configuration not stated)
> 100 µM: TGI (RXF 393 renal) | TGI (786-0 renal) | TGI (PC-3 prostate) | TGI (NCI-H522 lung) | TGI (SNB-75 CNS) | TGI (K-562 leukemia) | TGI (UO-31 renal) | TGI (SN12C renal) | TGI (MOLT-4 leukemia)

NC(=O)N/N=C(\Cc1cc(=O)oc2cc(O)ccc12)C(=O)Nc1ccccc1C(N)=O
> 100 µM: TGI (RXF 393 renal) | TGI (786-0 renal) | TGI (PC-3 prostate) | TGI (HL-60(TB) leukemia) | TGI (NCI-H522 lung) | TGI (SNB-75 CNS) | TGI (UO-31 renal) | TGI (SN12C renal) | TGI (MOLT-4 leukemia)

CN(C)C(=C1C(Br)=C(Br)C(Br)=C1Br)N(C)C
39.9 µM: TGI (NCI-H522 lung)
> 100 µM: TGI (RXF 393 renal) | TGI (786-0 renal) | TGI (HL-60(TB) leukemia) | TGI (SNB-75 CNS) | TGI (K-562 leukemia) | TGI (UO-31 renal) | TGI (SN12C renal) | TGI (MOLT-4 leukemia)

Cc1c2ccccc2c(=O)n2c(-c3ccccn3)cccc12
> 100 µM: TGI (RXF 393 renal) | TGI (786-0 renal) | TGI (HL-60(TB) leukemia) | TGI (NCI-H522 lung) | TGI (SNB-75 CNS) | TGI (K-562 leukemia) | TGI (UO-31 renal) | TGI (SN12C renal) | TGI (MOLT-4 leukemia)

O=S1(=O)[C@H](c2ccccc2)c2c(-c3ccccc3)sc(-c3ccccc3)c2[C@@H]1c1ccccc1
> 100 µM: TGI (RXF 393 renal) | TGI (786-0 renal) | TGI (HL-60(TB) leukemia) | TGI (NCI-H522 lung) | TGI (SNB-75 CNS) | TGI (K-562 leukemia) | TGI (UO-31 renal) | TGI (SN12C renal) | TGI (MOLT-4 leukemia)

N#Cc1cnc2ccc(NCc3cnc[nH]3)cc2c1Nc1ccc(F)c(Cl)c1
95.8 µM: TGI (SNB-75 CNS)
inactive: GI50 (RXF 393 renal) 7.03 µM | GI50 (786-0 renal) 9.21 µM | GI50 (HL-60(TB) leukemia) 15.2 µM | GI50 (NCI-H522 lung) 4.6 µM | GI50 (SNB-75 CNS) 11.1 µM | GI50 (K-562 leukemia) 9.3 µM | GI50 (UO-31 renal) 3.52 µM | GI50 (SN12C renal) 4.17 µM | GI50 (MOLT-4 leukemia) > 100 µM
> 100 µM: TGI (RXF 393 renal) | TGI (786-0 renal) | TGI (HL-60(TB) leukemia) | TGI (NCI-H522 lung) | TGI (K-562 leukemia) | TGI (UO-31 renal) | TGI (SN12C renal) | TGI (MOLT-4 leukemia)

CCOc1ccc2c(c1)[n+]([O-])c(C(N)=O)c(N)[n+]2[O-]
> 100 µM: TGI (RXF 393 renal) | TGI (786-0 renal) | TGI (HL-60(TB) leukemia) | TGI (NCI-H522 lung) | TGI (SNB-75 CNS) | TGI (K-562 leukemia) | TGI (UO-31 renal) | TGI (SN12C renal) | TGI (MOLT-4 leukemia)

COC(=O)C1=C(C(=O)OC)C23CC4CCC2(C(=O)C1O3)C4(C)C (configuration not stated)
> 100 µM: TGI (RXF 393 renal) | TGI (786-0 renal) | TGI (SNB-75 CNS) | TGI (K-562 leukemia) | TGI (UO-31 renal) | TGI (SN12C renal) | TGI (MOLT-4 leukemia)
52.6 µM: TGI (HL-60(TB) leukemia)
48.8 µM: TGI (NCI-H522 lung)
